Assay results reported in patent US20220117912A1, “L-PIPECOLIC ACID COCRYSTAL OF CANNABIDIOL” (EBERS TECH INC., priority 2019, published 2022).

Tests used:
[1] = Visual water solubility test of the cocrystal (0.6 mg in 3 mL water, shaken and sonicated); type: physicochemical
Experimental: 0.6 mg of the cocrystal was placed in a glass vial and 3 mL of water was added. The slurry was immediately shaken and sonicated.

[2] = Exposure to relative humidity (RH) stress, XRPD afterwards; type: physicochemical; conditions: 95% RH for 8 days
From the text: X-Ray Powder Diffraction (XRPD): The Rigaku Smart-Lab X-ray diffraction system was configured for reflection Bragg-Brentano geometry using a line source X-ray beam. The x-ray source is a Cu Long Fine Focus tube that was operated at 40 kV and 44 ma. That source provides an incident beam profile at the sample that changes from a narrow line at high angles to a broad rectangle at low angles. Beam conditioning slits are used on the line X-ray source to ensure that the maximum beam size is less than 10 mm both along the line and normal to the line. The Bragg-Brentano geometry is a para-focusing geometry controlled by passive divergence and receiving slits with the sample itself acting as the focusing component for the optics. The inherent resolution of Bragg-Brentano geometry is governed in part by the diffractometer radius and the width of the receiving slit used. Typically, the Rigaku Smart-Lab is operated to give peak widths of 0.1° 2θ or less. The axial divergence of the X-ray beam is controlled by 5.0-degree Soller slits in both the incident and diffracted beam paths. […] Each sample was analyzed from 2 to 40° 2θ using a continuous scan of 6° 2θ per minute with an effective step size of 0.02° 2θ. In the case of high resolution XRPD, samples were analyzed with a scan rate of 1° 2θ per minute with a sample spin rate of 50 rpm. […]

C=C(C)[C@@H]1CCC(C)=C[C@H]1c1c(O)cc(CCCCC)cc1O.O=C(O)[C@@H]1CCCCN1 [1:1 cannabidiol:L-pipecolic acid cocrystal]
Visual dissolution in water ([1]; 0.6 mg of cocrystal in 3 mL of water, shaken and sonicated): none of the solid dissolved
Water solubility ([1]; water): less than 0.2 mg/mL
Solid-form stability under humidity stress (XRPD pattern after stress) [2]: cocrystal disassociated during the experiment
